Measurements from article PMC4729491, “The Cellular Thioredoxin-1/Thioredoxin Reductase-1 Driven Oxidoreduction Represents a Chemotherapeutic Target for HIV-1 Entry Inhibition” (PLoS ONE, 2016).
Counter-ions that a name gives are not always drawn. Like-named read-outs stand apart in the source and are kept apart here. Square brackets hold non-standard residues; d marks the D form. Peptide text beside a SMILES is read from it. * marks the point of attachment. Sta = CC(C)C[C@H](N)[C@@H](O)CC(=O)O; Isovaleryl = CC(C)CC(=O)*

Legend:
HIV-1(IIIB) [1] = format: cell-based; settings: for time after virus infection that addition could be delayed without losing inhibitory activity / time post-infection at which activity is lost: MT-4 cells; for time after virus infection that addition could be delayed without losing inhibitory activity: p24 ELISA at 31 h, AZT 1.9 μM, ritonavir 277 nM; for time post-infection at which activity is lost: second TOA experiment, DS-8000 12.5 μM, AMD3100 625 nM
Description: Two time-of-drug-addition (TOA) experiments were performed and adopted from previously reported methods. Briefly, MT-4 cells were infected with HIV-1(IIIB) at a multiplicity of infection of 0.5. Following a 1 hour adsorption period, cells were washed, distributed in a 96-well tray at 100,000 cells per 200 μl per well and incubated at 37°C.
For the first experiment, test compounds were added to the infected cell cultures at different time points (i.e. 0, 1, 2, 3, 4, 5, 6, 7, 8, 9, 24, and 25 h) after the start of infection.
In a second experiment, the resolution of the assay was increased by evaluating early time points in more detail. Therefore, the test compounds were added to the infected cell cultures at the following time points after the start of infection: 0, 15, 30, 45, 100 and 180 min; and 24 as well as 25 h.
Product added at time points 0, 15, 30 and 45 min was present at the start of the viral infection and washed away after 1 hour. After washing, fresh product was added to maintain viral suppression throughout the remaining of the experiment.
HIV-1 production was determined at 31 h post infection via a p24 ELISA (Perkin Elmer, Brussels, Belgium).

HIV-1 protease [2] = target: T1, HIV-1 protease (Human immunodeficiency virus type 1 group M subtype B, UniProt P04585); assay: p55 cleavage in virus particles from HuT-78/HIV-1 cells (Western blot); format: cell-based; settings: 43 h, AZT 3.7 μM, ritonavir 2.8 μM, TE-10 1 and 20 μM
T1 construct: the virus-encoded protease; endogenous in cells; host or cells: persistently infected HuT-78/HIV-1(IIIB) cells and released virus particles
Description: In order to confirm the inhibitory effect of TE-10, an additional assay was performed to study the inhibition of the HIV-1 protease by TE-10. Therefore, 2 x 10^5 persistently infected HuT-78/HIV-1 cells were washed thoroughly and seeded in 48-well plates, in the presence or absence of compound. As reference compounds, the RT inhibitor AZT (3.7 μM) and the protease inhibitor ritonavir (2.8 μM) were used, as negative and positive controls, respectively. TE-10 was used at 1 μM and 20 μM. After 43 h of incubation at 37°C, virus-containing cell culture supernatants were harvested and the cells were removed by centrifugation (10 min at ± 900 x g). Then, virus was precipitated from the cell supernatant by centrifugation at ± 3.5 x 10^4 x g for at least 2 h. The viruses were resuspended in PBS and lysed with Triton-X100 (Sigma-Aldrich, Diegem, Belgium). These viral lysates were then subjected to SDS-PAGE and subsequent Western blotting to detect the presence of p24 and its precursor p55, using an anti-p24 antibody (AB9044; final concentration 2.4 μg/ml).

[3] = test system: HuT-78/HIV-1 and Sup-T1 cells; assay: cells; format: cell-based; settings: read-out: IC50 inhibition of syncytia formation
Description: Persistently infected HuT-78/HIV-1 cells were thoroughly washed to eliminate free virions. Next, 1 x 10^5 HuT-78/HIV-1 cells were co-cultivated with 1 x 10^5 Sup-T1 cells in 96-well plates (200 μl/well) during 20 h at 37°C, in the presence or absence of a serial dilution of compound. Afterwards, the formation of syncytia was evaluated microscopically. The EC50 was defined as the compound concentration required to suppress syncytia formation by 50%.

HIV-1(BaL) = assay: Antiviral activity in PHA-stimulated PBMCs (p24 ELISA), HIV-1(BaL); format: cell-based; settings: Human immunodeficiency virus 1, BAL, PBMC; for EC50: read-out: EC50 HIV-1 (BAL)
Description: (§1) To test the antiviral activity in fresh, PHA-stimulated PBMCs, an experiment was performed as previously described. Briefly, the cells were preincubated with HIV-1(IIIB), HIV-1(BaL) or HIV-1(HE) for 1 h at 37°C, using a viral load of 1000 x CCID50 per ml. Then, cell suspensions containing virus and 2 x 10^5 PBMCs were seeded in a 96-well microtiter plate and a serial dilution of compound was added, in a total volume of 200 μl. After 4 days, the cells were passaged and fresh culture medium, containing IL-2 and compound, was added. Three days later, cellular supernatants were harvested and viral replication in the presence of the compounds was quantified using a p24 enzyme-linked immunosorbent assay (ELISA) (Perkin Elmer, Brussels, Belgium). The half maximal effective concentration (EC50) was defined as the compound concentration that is required to block viral replication by 50%.

HIV-1 = assay: Infectivity (TZM-bl) of virus particles produced by ACH-2 cells in presence of compound; format: cell-based; settings: for carry-over control: residual compound as cause of decreased infectivity: compound added at 1/100 of concentration in viral growth culture
Description: To measure the infectivity of particles produced in the presence of the compounds, washed persistently HIV-1-infected ACH-2 cells (1 x 10^6 cells/ml) were cultured with 100 nM PMA in the presence of the indicated concentration of compounds. After 3 days, the p24 content of the clarified supernatant (see virus expression) was measured. The cell supernatant was then used for an infectivity test (see infectivity assay) without the further addition of any compound to the cultures. The final dilution of the ACH-2 supernatant in the infectivity test was 1:100. A control experiment was performed, in which virus particles produced without the addition of compound, were used for the infectivity test. Additionally, the same amount of compound that could have been carried over with the virus containing supernatant in the original experiment was added to the infectivity test (final concentration: 1/100 of the indicated amount in the viral growth culture).

[4] = previously known structural properties ref 20-22; cited from earlier work
HeLa cells = assay: Cytostatic activity assay, HeLa cells; format: cell-based; settings: Homo sapiens, 72 h, read-out: IC50 HeLa
Description: (§2) The cytostatic activity assay using transformed cell lines was also performed in 96-well microtiter plates. 5–7.5 x 10^4 human CD4^+ T-lymphocyte CEM or human cervix carcinoma HeLa cells and a given amount of the test compounds were added to each well. The cells were allowed to proliferate for 72 h (96 h for HeLa) at 37°C in a humidified CO2-controlled atmosphere. At the end of the incubation period, the cells were counted in a Coulter counter (type ZM, Coulter Electronics, Analis, Ghent, Belgium).

HIV-1(IIIB) [5] = assay: Antiviral activity in PHA-stimulated PBMCs (p24 ELISA), HIV-1(IIIB); format: cell-based; settings: Human immunodeficiency virus 1, IIIB, PBMC, read-out: EC50 HIV-1 (IIIB)
Description: as §1

HIV-1(HE) = assay: Antiviral activity in PHA-stimulated PBMCs (p24 ELISA), HIV-1(HE); format: cell-based; settings: Human immunodeficiency virus 1, PBMC, read-out: EC50 HIV-1 (HE)
Description: as §1

HIV-1(IIIB) [6] = assay: microbe, parasite or virus in culture; format: cell-based; settings: for Ratio IC50/EC50 HIV-1 (CEM): CEM cells; for EC50: Human immunodeficiency virus 1, IIIB, CCRF-CEM, read-out: EC50 HIV-1 (IIIB)
Description: (§3) To study the antiviral activity in transformed cells, CEM cells were suspended in fresh culture medium and infected with HIV-1(IIIB) or HIV-2(ROD) at 100 x CCID50 (cell culture infective dose 50%) per ml of cell suspension. Infected cell suspension (100 μl; 3 x 10^5 cells/ml) was transferred to a 96-well microplate, mixed with 100 μl of the appropriate dilutions of compounds, and further incubated at 37°C. After 4 days, giant cell formation was recorded microscopically and the number of giant cells was estimated microscopically as percentage of the number of giant cells present in the non-treated virus-infected cell cultures.

HIV-2(ROD) = assay: Inhibition of HIV-2(ROD)-induced giant cell formation in CEM cell cultures; format: cell-based; settings: for Ratio IC50/EC50 HIV-2 (CEM): CEM cells; for EC50: Human immunodeficiency virus 2, CCRF-CEM, read-out: EC50 HIV-2 (ROD)
Description: as §3

PHA-stimulated PBMCs = assay: Toxicity in PHA-stimulated PBMCs (trypan blue cell counting); format: cell-based, human; settings: Homo sapiens, PBMC, 168 h, read-out: IC50 PBMC
Description: A similar experiment was performed to study the toxicity of the compounds in fresh, PHA-stimulated, PBMCs. Mock-infected PBMCs (2 x 10^5 cells) were exposed to a serial dilution of compound, in a total volume of 200 μl. Cells were passaged after 4 days. Cell survival and proliferation was assessed at day 7 using trypan blue-based cell counting with the Countess Automated Cell Counter (Invitrogen, Ghent, Belgium). The IC50 was defined as the concentration of the compound that inhibited cell proliferation by 50%.

CEM cells = assay: Cytostatic activity assay, CEM cells; format: cell-based; settings: Homo sapiens, CCRF-CEM, 72 h; inhibition of cell proliferation by 50%, three-day drug-exposed; mean ± SD
Description: as §2

HIV-1 protease [7] = target: T1, HIV-1 protease; assay: HIV-1 protease inhibition (SensoLyte 520 kit); format: biochemical; settings: 25 μM
Description: The ability of the compounds to inhibit the activity of recombinant HIV-1 protease was determined by a SensoLyte 520 HIV-1 protease assay kit (AnaSpec Inc., Fremont, CA) according to the manufacturer’s instructions. Compounds (10 μl of a 250 μM, solution, giving a final concentration of 25 μM in the reaction mixture) and 40 μl HIV-1 protease (100 ng/well; AnaSpec Inc.) were added to a dark-bottom 96-well plate. Pepstatin A was included as an inhibitor control. The plate as well as the HIV-1 protease substrate solution (provided) were incubated for 15 minutes at 37°C and 50 μl protease substrate was added to all wells. The fluorescence was measured at Ex/Em = 490 nm/520 nm with a Varioskan Flash (Thermo Electron Corporation, Schwerte, Germany).

[8] = Human immunodeficiency virus 1, SUP-T1, 24 h

Compound: CC(C)c1nc(CN(C)C(=O)N[C@H](C(=O)N[C@@H](Cc2ccccc2)C[C@H](O)[C@H](Cc2ccccc2)NC(=O)OCc2cncs2)C(C)C)cs1 [ritonavir]
- time after virus infection that addition could be delayed without losing inhibitory activity (HIV-1(IIIB) [1]): ≥ 8 h
- p55 cleavage in viral particles (Western blot) (HIV-1 protease [2]): blocks this cleavage

Compound: enfuvirtide
- IC50 ([3]; cocultures of HuT-78/HIV-1 and Sup-T1 cells, ~24 hours): 0.275 ± 0.15 µM

Compound: Cc1cn([C@H]2C[C@H](N=[N+]=[N-])[C@@H](CO)O2)c(=O)[nH]c1=O [AZT, 3’-azido-2’,3’-dideoxythymidine]
- time after virus infection that addition could be delayed without losing inhibitory activity (HIV-1(IIIB) [1]): at least 3 h
- p55 cleavage in viral particles (Western blot) (HIV-1 protease [2]): allow efficient p55 cleavage

Compound: c1cc(CN2CCCNCCNCCCNCC2)ccc1CN1CCCNCCNCCCNCC1 [AMD3100]
- IC50 ([3]; Human immunodeficiency virus 1, cocultures of HuT-78/HIV-1 and Sup-T1 cells, ~24 hours): 9.3 ± 4.3 µM
- inhibition in time-of-addition assay (HIV-1(IIIB) [1]; 625 nM): fully inhibitory
- time post-infection at which activity is lost (HIV-1(IIIB) [1]): 30 to 45 min

Compound: dextran sulphate [DS-8000]
- time post-infection at which activity is lost (HIV-1(IIIB) [1]): 30 to 45 min

Compound: CCCC[Te]CCCS(=O)(=O)O [TE-20, 3-(butyltelluro)propanesulfonic acid sodium salt]
- EC50 (HIV-1(BaL)): ≥ 25 µM
- inhibition at 25 µM (HIV-1(BaL); read-out: inhibition at indicated concentration): 30 to 50%
- carry-over control: residual compound as cause of decreased infectivity (HIV-1): could not be explained by the presence of residual compound
- Hydrophobicity [4]: Hydrophilic
- IC50 (HeLa cells): 101 ± 3 µM
- EC50 (HIV-1(IIIB) [5]): 18 ± 12 µM
- IC50 [3, 8]: > 250 µM
- EC50 (HIV-1(HE)): 11 ± 9 µM
- Ratio IC50/EC50 HIV-1 (CEM) (HIV-1(IIIB) [6]): 38
- EC50 (HIV-1(IIIB) [6]): 2.7 ± 2.6 µM
- Ratio IC50/EC50 HIV-2 (CEM) (HIV-2(ROD)): 36
- EC50 (HIV-2(ROD)): 2.9 ± 1.3 µM
- IC50 (PHA-stimulated PBMCs): 75 ± 53 µM
- IC50 (CEM cells): 103 ± 27 µM

Compound: CN(C)c1ccc([Te]CCCOc2ccccc2)cc1 [TE-14, N,N-dimethyl-4-aminophenyl 3-phenoxypropyl telluride]
- EC50 (HIV-1(BaL)): 9.6 ± 10 µM
- infectivity of virus particles produced in presence of compound (normalized for equal p24) (HIV-1; ACH-2 cultures exposed to compound 3 days, supernatant 1:100 titrated on TZM-bl): substantially less infectious virus particles
- carry-over control: residual compound as cause of decreased infectivity (HIV-1): could not be explained by the presence of residual compound
- Hydrophobicity [4]: Hydrophobic
- IC50 (HeLa cells): 25 ± 4 µM
- EC50 (HIV-1(IIIB) [5]): 4.9 ± 2.1 µM
- IC50 [3, 8]: > 250 µM
- EC50 (HIV-1(HE)): 5.4 ± 3 µM
- Ratio IC50/EC50 HIV-1 (CEM) (HIV-1(IIIB) [6]): 26
- EC50 (HIV-1(IIIB) [6]): 0.86 ± 0.21 µM
- Ratio IC50/EC50 HIV-2 (CEM) (HIV-2(ROD)): 16
- EC50 (HIV-2(ROD)): 1.4 ± 0.56 µM
- IC50 (PHA-stimulated PBMCs): 9.9 ± 2.5 µM
- IC50 (CEM cells): 22 ± 2 µM

Compound: CC(C)CC(=O)N[C@H](C(=O)N[C@H](C(=O)N[C@@H](CC(C)C)[C@@H](O)CC(=O)N[C@@H](C)C(=O)N[C@@H](CC(C)C)[C@@H](O)CC(=O)O)C(C)C)C(C)C [pepstatin A, reference compound] (Isovaleryl-VV[Sta]A[Sta]-OH)
- inhibition of protease activity (HIV-1 protease [7]): pronounced inhibitory activity
